The text below walks through data of patent US10577337B2, “Compositions and methods of treatment with prodrugs of tizoxanide, an analogue or salt thereof” (Romark Laboratories, L.C., priority 2014, dated 2020).

Data set [1] is described as follows: Aqueous solubility. Format: physicochemical.
The conditions of data set [2]: humans, cited from earlier work.

As a reminder, the solubility is the concentration that dissolves in the medium under given conditions. Read a low solubility as a poorly soluble substance.

In the case of `CC(=O)Oc1ccccc1C(=O)Nc1ncc([N+](=O)[O-])s1` [nitazoxanide, 2-(acetolyloxy)-N-(5-nitro-2-thiazolyl)benzamide], the “aqueous solubility, descriptive term” value in data set [1] was “practically insoluble”. Moreover, the solubility in data set [1] (aqueous) is < 100 µg/mL. In addition, the “effect of food on absorption” value in data set [2] (administered with food) is given as “approximately doubled with food”.
As for `O=C(Nc1ncc([N+](=O)[O-])s1)c1ccccc1O` [tizoxanide], the “half-life of tizoxanide in plasma” value in data set [2] (after oral nitazoxanide or nitazoxanide plus tizoxanide) is “approximately 1.5 hours”.
